Results as given in PMC9653409, “Generative deep learning enables the discovery of a potent and selective RIPK1 inhibitor” (Nature Communications, 2022).
Where two headings read alike, the source gives them in different places.

Experiments:
RIPK1 = biological target: T1, RIPK1 (Homo sapiens, UniProt Q13546); experiment: RIPK1 kinase assay, 33P-labeled ATP assay at Eurofins; format: biochemical
T1 sequence (Q13546 1-671): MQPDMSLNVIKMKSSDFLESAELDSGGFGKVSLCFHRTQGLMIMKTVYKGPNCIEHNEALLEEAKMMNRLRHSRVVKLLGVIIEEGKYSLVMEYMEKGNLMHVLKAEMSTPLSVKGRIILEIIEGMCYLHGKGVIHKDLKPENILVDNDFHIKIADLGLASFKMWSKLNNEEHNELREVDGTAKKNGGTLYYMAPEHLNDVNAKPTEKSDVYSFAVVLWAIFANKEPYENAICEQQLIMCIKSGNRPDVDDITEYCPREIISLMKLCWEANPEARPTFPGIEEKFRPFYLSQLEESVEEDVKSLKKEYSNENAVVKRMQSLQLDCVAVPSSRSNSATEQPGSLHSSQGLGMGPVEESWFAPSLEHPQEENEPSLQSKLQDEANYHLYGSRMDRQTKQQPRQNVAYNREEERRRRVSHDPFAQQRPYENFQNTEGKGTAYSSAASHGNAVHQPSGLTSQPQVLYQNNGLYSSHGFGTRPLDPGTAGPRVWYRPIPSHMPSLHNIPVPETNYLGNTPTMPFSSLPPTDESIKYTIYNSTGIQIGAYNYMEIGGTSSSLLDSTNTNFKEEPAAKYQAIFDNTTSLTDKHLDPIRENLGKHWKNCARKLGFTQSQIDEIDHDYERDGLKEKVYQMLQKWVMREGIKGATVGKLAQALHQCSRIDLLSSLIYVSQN
Procedure: In vitro kinase activity assays were conducted through the Kinase Profiling Services provided by Eurofins (Eurofins, France). The protocol for the RIPK1 assay is briefly described as follows (Protocols for other kinases are very similar and can be found in http://www.eurofins.com/pharmadiscovery). RIPK1 kinase was incubated with the test compound in assay buffer containing 8 mM MOPS (pH 7.0), 0.2 mM EDTA, 250 μM […], 10 mM magnesium acetate, and 10 μM [γ-33P]-ATP for 15 min at room temperature. The reaction was initiated by the addition of the Mg/ATP mixture. After incubation for 40 min at room temperature, and the reaction was stopped by the addition of 3% phosphoric acid. A 10 μL portion of the reaction mixture was then spotted onto a P30 filter mat and washed four times for 4 min in 0.425% phosphoric acid and once in methanol prior to drying and scintillation counting.

[1] = biological target: panel of human kinases (kinase named in endpoint) (Homo sapiens, UniProt Q9Y463); experiment: Kinase inhibitory activity profiling of RI-962@10 µM (406 kinases, Eurofins); format: biochemical; conditions: 10 µM; read-out: Activity (%), DYRK1B(h)
Summary of the method: (§1)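 Radiometric filter-binding kinase assays: enzyme preincubated 15 min with compound in 8 mM MOPS pH 7.0, 0.2 mM EDTA, 250 μM peptide substrate, 10 mM magnesium acetate, 10 μM [γ-33P]-ATP. Reaction started with Mg/ATP, run 40 min at room temperature, stopped with phosphoric acid; 33P incorporation read by scintillation counting. Other kinases by similar protocols.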

[2] = biological target: panel of human kinases (kinase named in endpoint) (Homo sapiens, UniProt Q9NSY1); experiment: as above; format: biochemical; conditions: 10 µM; read-out: Activity (%), BIKe(h)
Summary of the method: as §1

[3] = biological target: panel of human kinases (kinase named in endpoint) (Homo sapiens, UniProt P07332); experiment: as above; format: biochemical; conditions: 10 µM; read-out: Activity (%), Fes(h)
Summary of the method: as §1

[4] = biological target: panel of human kinases (kinase named in endpoint) (Homo sapiens, UniProt Q6P2M8); experiment: as above; format: biochemical; conditions: 10 µM; read-out: Activity (%), CaMKIß(h)
Summary of the method: as §1

[5] = biological target: panel of human kinases (kinase named in endpoint) (Homo sapiens, UniProt P08581, Y1230D); experiment: as above; format: biochemical; conditions: 10 µM; read-out: Activity (%), Met(Y1248D)(h)
Summary of the method: as §1

[6] = biological target: panel of human kinases (kinase named in endpoint) (Homo sapiens, UniProt Q8N5S9); experiment: as above; format: biochemical; conditions: 10 µM; read-out: Activity (%), CaMKK1(h)
Summary of the method: as §1

[7] = biological target: panel of human kinases (kinase named in endpoint) (Homo sapiens, UniProt Q8IZX4); experiment: as above; format: biochemical; conditions: 10 µM; read-out: Activity (%), TAF1L(h)
Summary of the method: as §1

[8] = biological target: panel of human kinases (kinase named in endpoint) (Homo sapiens, UniProt O00443); experiment: as above; format: biochemical; conditions: 10 µM; read-out: Activity (%), PI3KC2a(h)
Summary of the method: as §1

[9] = biological target: panel of human kinases (kinase named in endpoint) (Homo sapiens, UniProt O00311); experiment: as above; format: biochemical; conditions: 10 µM; read-out: Activity (%), Cdc7/cyclinB1(h)
Summary of the method: as §1

[10] = biological target: panel of human kinases (kinase named in endpoint) (Homo sapiens, UniProt P12931, T341M); experiment: as above; format: biochemical; conditions: 10 µM; read-out: Activity (%), Src(T341M)(h)
Summary of the method: as §1

[11] = biological target: panel of human kinases (kinase named in endpoint) (Homo sapiens, UniProt Q96RR4); experiment: as above; format: biochemical; conditions: 10 µM; read-out: Activity (%), CaMKK2(h)
Summary of the method: as §1

[12] = biological target: panel of human kinases (kinase named in endpoint) (Homo sapiens, UniProt O96017, I157T); experiment: as above; format: biochemical; conditions: 10 µM; read-out: Activity (%), CHK2(I157T)(h)
Summary of the method: as §1

[13] = biological target: panel of human kinases (kinase named in endpoint) (Homo sapiens, UniProt Q15119); experiment: as above; format: biochemical; conditions: 10 µM; read-out: Activity (%), PDHK2(h)
Summary of the method: as §1

[14] = biological target: panel of human kinases (kinase named in endpoint) (Homo sapiens, UniProt Q96PF2); experiment: as above; format: biochemical; conditions: 10 µM; read-out: Activity (%), TSSK2(h)
Summary of the method: as §1

[15] = biological target: panel of human kinases (kinase named in endpoint) (Homo sapiens, UniProt P53350); experiment: as above; format: biochemical; conditions: 10 µM; read-out: Activity (%), Plk1(h)
Summary of the method: as §1

[16] = biological target: panel of human kinases (kinase named in endpoint) (Homo sapiens, UniProt O60674); experiment: as above; format: biochemical; conditions: 10 µM; read-out: Activity (%), JAK2(h)
Summary of the method: as §1

[17] = biological target: panel of human kinases (kinase named in endpoint) (Homo sapiens, UniProt P07949, V804M); experiment: as above; format: biochemical; conditions: 10 µM; read-out: Activity (%), Ret(V804M)(h)
Summary of the method: as §1

[18] = C57B6, mouse, in vivo

Sequence of panel of human kinases (kinase named in endpoint) (Homo sapiens, UniProt P07332) (P07332 whole entry): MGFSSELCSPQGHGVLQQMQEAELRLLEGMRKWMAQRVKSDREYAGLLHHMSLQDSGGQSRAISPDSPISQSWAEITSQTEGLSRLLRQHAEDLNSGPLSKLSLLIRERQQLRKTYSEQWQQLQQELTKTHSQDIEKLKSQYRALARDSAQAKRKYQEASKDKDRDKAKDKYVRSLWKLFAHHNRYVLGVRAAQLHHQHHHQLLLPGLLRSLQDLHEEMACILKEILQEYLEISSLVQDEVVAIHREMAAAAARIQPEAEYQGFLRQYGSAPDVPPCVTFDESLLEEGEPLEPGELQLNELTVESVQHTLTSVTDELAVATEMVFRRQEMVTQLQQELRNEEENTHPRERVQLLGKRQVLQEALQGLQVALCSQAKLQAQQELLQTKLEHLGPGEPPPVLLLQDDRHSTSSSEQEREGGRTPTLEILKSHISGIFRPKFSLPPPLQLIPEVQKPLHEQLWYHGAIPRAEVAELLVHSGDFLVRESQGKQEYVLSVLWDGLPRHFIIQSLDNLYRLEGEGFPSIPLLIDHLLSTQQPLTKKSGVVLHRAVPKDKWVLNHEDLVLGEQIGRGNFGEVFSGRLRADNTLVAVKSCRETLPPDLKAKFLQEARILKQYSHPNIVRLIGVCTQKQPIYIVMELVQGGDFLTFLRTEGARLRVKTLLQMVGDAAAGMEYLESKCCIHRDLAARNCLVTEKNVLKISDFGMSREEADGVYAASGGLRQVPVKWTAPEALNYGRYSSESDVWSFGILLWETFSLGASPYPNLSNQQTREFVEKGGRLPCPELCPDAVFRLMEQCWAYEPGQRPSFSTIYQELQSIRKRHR
Sequence of panel of human kinases (kinase named in endpoint) (Homo sapiens, UniProt P53350) (P53350 whole entry): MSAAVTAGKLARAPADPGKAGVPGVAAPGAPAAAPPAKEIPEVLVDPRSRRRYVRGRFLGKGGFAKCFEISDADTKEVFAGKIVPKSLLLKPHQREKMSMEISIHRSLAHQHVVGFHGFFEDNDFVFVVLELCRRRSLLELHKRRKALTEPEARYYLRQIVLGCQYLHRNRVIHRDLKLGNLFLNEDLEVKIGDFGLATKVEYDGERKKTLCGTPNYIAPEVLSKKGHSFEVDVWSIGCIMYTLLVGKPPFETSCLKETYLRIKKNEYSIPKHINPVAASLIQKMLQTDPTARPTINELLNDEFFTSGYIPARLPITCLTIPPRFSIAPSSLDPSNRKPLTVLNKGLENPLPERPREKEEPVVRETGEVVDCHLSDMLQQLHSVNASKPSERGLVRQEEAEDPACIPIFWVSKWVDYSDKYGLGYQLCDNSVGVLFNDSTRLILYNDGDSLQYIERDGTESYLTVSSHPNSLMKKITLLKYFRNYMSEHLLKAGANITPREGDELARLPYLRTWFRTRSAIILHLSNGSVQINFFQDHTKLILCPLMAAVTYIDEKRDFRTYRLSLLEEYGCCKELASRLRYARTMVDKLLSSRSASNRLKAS
Sequence of panel of human kinases (kinase named in endpoint) (Homo sapiens, UniProt Q8IZX4) (Q8IZX4 whole entry): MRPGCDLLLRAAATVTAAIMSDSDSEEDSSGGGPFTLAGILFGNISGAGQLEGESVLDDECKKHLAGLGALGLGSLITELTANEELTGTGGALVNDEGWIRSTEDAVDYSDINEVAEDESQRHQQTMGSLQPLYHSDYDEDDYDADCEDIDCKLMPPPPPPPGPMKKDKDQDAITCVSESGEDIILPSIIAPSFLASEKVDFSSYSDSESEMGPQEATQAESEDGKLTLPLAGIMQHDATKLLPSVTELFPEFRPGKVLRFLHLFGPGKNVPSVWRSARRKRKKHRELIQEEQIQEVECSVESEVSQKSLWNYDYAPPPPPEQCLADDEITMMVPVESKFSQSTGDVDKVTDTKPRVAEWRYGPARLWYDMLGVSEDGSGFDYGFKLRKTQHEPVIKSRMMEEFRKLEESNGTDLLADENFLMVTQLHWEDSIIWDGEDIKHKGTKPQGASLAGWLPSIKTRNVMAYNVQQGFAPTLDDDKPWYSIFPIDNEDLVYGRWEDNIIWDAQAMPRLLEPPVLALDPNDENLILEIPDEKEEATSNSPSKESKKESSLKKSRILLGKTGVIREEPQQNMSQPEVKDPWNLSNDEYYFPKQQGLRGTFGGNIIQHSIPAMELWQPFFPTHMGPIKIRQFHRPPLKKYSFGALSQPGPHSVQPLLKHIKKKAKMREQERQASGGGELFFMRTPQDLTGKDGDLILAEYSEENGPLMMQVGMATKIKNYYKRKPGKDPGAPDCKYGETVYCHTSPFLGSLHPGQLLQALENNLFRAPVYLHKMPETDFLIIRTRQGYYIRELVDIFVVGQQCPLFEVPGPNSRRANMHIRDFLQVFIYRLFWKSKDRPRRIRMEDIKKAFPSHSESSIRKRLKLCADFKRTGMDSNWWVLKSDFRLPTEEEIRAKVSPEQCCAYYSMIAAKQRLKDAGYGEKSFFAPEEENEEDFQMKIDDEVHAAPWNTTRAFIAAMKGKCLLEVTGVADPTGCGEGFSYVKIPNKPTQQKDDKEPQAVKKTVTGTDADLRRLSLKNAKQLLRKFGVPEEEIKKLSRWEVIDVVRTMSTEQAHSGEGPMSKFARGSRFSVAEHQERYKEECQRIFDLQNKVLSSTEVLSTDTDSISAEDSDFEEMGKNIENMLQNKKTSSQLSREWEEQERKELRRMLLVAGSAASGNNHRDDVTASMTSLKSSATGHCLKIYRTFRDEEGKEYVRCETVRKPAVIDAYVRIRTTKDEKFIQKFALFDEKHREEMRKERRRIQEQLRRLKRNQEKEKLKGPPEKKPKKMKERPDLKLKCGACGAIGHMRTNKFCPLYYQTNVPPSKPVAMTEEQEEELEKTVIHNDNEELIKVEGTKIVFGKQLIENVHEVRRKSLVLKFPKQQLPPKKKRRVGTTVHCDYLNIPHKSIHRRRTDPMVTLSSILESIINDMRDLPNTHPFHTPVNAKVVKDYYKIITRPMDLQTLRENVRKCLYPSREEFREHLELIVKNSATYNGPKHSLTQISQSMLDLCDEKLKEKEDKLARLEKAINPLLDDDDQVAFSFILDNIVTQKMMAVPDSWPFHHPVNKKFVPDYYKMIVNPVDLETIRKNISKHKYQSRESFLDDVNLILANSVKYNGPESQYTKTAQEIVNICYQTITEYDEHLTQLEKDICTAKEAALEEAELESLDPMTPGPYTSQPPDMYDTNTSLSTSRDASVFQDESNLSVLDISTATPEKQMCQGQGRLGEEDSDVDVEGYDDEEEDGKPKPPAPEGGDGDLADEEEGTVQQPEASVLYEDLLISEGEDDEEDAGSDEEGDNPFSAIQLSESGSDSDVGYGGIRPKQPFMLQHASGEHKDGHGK
Sequence of panel of human kinases (kinase named in endpoint) (Homo sapiens, UniProt O00443) (O00443 whole entry): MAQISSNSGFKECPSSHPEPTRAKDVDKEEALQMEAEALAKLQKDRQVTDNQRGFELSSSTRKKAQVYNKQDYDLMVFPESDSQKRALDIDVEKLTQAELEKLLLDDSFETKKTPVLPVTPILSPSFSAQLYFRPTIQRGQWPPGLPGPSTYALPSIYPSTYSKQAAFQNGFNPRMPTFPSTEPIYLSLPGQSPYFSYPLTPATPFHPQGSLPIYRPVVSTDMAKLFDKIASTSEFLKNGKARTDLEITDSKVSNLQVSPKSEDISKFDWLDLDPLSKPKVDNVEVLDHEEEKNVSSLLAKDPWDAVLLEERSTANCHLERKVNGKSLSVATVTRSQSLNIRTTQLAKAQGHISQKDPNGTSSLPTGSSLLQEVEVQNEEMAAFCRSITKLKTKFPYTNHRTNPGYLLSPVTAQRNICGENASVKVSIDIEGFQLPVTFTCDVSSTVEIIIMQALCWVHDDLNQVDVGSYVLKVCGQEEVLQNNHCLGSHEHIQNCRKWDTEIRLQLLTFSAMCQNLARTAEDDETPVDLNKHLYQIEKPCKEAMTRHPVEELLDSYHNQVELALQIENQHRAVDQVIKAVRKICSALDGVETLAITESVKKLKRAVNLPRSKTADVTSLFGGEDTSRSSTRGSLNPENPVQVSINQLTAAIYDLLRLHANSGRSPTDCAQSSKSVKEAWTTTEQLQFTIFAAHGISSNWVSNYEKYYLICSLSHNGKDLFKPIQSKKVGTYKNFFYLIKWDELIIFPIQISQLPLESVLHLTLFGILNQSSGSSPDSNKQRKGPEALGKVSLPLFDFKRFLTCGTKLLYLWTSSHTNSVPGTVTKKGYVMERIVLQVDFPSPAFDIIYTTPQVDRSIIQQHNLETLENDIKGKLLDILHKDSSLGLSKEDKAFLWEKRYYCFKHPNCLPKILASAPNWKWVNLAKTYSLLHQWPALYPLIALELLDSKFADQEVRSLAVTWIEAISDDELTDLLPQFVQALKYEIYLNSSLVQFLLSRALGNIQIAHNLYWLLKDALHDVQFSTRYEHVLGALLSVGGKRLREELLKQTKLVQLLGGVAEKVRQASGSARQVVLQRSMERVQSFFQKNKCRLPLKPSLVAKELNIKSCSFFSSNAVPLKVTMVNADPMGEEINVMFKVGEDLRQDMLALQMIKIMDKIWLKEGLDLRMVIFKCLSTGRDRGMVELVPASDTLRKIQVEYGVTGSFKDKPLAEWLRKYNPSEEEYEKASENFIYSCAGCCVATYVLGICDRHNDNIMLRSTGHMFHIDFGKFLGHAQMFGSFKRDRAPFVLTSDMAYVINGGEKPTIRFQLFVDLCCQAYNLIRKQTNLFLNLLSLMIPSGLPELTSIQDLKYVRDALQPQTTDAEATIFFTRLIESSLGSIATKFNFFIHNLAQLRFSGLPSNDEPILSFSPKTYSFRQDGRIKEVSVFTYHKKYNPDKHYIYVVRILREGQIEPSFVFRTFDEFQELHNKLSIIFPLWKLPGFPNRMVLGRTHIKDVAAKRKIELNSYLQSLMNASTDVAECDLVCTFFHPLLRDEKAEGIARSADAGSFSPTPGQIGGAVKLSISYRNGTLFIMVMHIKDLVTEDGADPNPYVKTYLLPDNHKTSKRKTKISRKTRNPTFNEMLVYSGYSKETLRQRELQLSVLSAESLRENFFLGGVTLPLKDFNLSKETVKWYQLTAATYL

## CC(C)C(=O)Nc1nc2cc(-c3ccc4c(c3)c(C(=O)NC(C)c3ccccc3)cn4C)ccn2n1 (centres unmarked) [RI-962]
RIPK1; 1 nM
  activity at 0.001 µM: 82.5%
RIPK1; 3 nM
  activity at 0.003 µM: 95%
RIPK1; 10 nM
  activity at 0.01 µM: 80.5%
RIPK1; 30 nM
  activity at 0.03 µM: 60.5%
RIPK1; 100 nM
  activity at 0.1 µM: 17.5%
RIPK1; 300 nM
  activity at 0.3 µM: -2%
RIPK1; 1000 nM
  activity at 1 µM: 11.5%
RIPK1; 3000 nM
  activity at 3 µM: 3.5%
RIPK1; 10 µM, read-out: Activity (%), RIPK1(h)
  activity at 10 µM: 0%
RIPK1; 10000 nM, read-out: Activity (%) Average
  activity at 10 µM: -3.5%
RIPK1; 33P-labeled ATP assay, read-out: IC50
  IC50: 35 nM
[1]
  activity at 10 µM: 100%
[2]
  activity at 10 µM: 60%
[3]
  activity at 10 µM: 99%
[4]
  activity at 10 µM: 100%
[5]
  activity at 10 µM: 110%
[6]
  activity at 10 µM: 56%
[7]
  activity at 10 µM: 89%
[8]
  activity at 10 µM: 102%
[9]
  activity at 10 µM: 53%
[10]
  activity at 10 µM: 100%
[11]
  activity at 10 µM: 81%
[12]
  activity at 10 µM: 92%
[13]
  activity at 10 µM: 96%
[14]
  activity at 10 µM: 76%
[15]
  activity at 10 µM: 122%
[16]
  activity at 10 µM: 107%
[17]
  activity at 10 µM: 115%
[18]
  doses well tolerated: up to 250 mg/kg
